Key:
[1] = system: HTPu-var-1-G4 (human telomere variant-1, 23-mer) (DNA, G4) TAGGGTTAGGGTTAGGGTTAGGG; assay: UV melting at 295 nm; conditions: 30 mM sodium cacodylate pH 7.0, 0.5 mM EDTA, 4 μM DNA
[2] = system: HTPu-var-1-G4 (human telomere variant-1, 23-mer) (DNA, G4) TAGGGTTAGGGTTAGGGTTAGGG; assay: circular dichroism titration; conditions: 30 mM sodium cacodylate pH 7.0, 0.5 mM EDTA, 6 μM DNA, apparent constant
[3] = system: HTPu-var-1-G4 (human telomere variant-1, 23-mer) (DNA, G4) TAGGGTTAGGGTTAGGGTTAGGG; assay: tryptophan fluorescence quenching titration; conditions: 30 mM buffer pH 7.0, 0.5 mM EDTA, 25 °C, 4 μM peptide titrated with DNA
[4] = system: HTPu-var-1-G4 (human telomere variant-1, 23-mer) (DNA, G4) TAGGGTTAGGGTTAGGGTTAGGG; assay: electrophoretic mobility shift assay with complementary strand HTPy-var-1; conditions: 100 mM K+; 30 mM sodium cacodylate pH 7.0, 1 mM EDTA; DNA:peptide 1:120, 1:160; excess HTPy-var-1 added afterwards

ΔTm ([1]; 100 mM K+, DNA:peptide 1:40, non-monotonic (66.1 at 1:80)): -1.0 °C | ΔTm ([1]; 100 mM Na+, DNA:peptide 1:230): -0.9 °C | Kb ([2]; 100 mM K+): 290 ± 10 µM | Kb ([2]; 100 mM Na+): 260 ± 30 µM | Kb ([3]; 100 mM K+): 0.71 ± 0.42 µM | Kb ([3]; 100 mM Na+): 0.46 ± 0.11 µM | binding [4]: yes
Substance: H-VAQKW-OH
